Activity calls are given as the source filed them. No cut-off for these calls is given here.
Columns and labels:
[1] = test system: HCT-116; assay: Growth inhibition of human HCT116 cells after 48 hrs by MTT assay; format: functional, cell-based; conditions: HCT-116, 48 h
[2] = test system: K562; assay: Growth inhibition of human K562 cells after 48 hrs by MTT assay; format: functional, cell-based; conditions: K562, 48 h
[3] = test system: SMMC-7721; assay: Growth inhibition of human SMMC7721 cells after 48 hrs by MTT assay; format: functional, cell-based; conditions: SMMC-7721, 48 h
[4] = test system: HepG2; assay: Growth inhibition of human HepG2 cells after 48 hrs by MTT assay; format: functional, cell-based; conditions: HepG2, 48 h
[5] = test system: CT26; assay: Antimigratory activity against mouse CT26 cells at 10 uM after 24 hrs by crystal violet staining based transwell assay; format: functional, cell-based
[6] = test system: HCT-116; assay: Downregulation of MMP2 protein expression in human HCT116 cells at 10 uM after 24 hrs by Western blot method; format: functional, cell-based
[7] = test system: HCT-116; assay: Antimigratory activity against human HCT116 cells at 10 uM after 24 hrs by crystal violet staining based transwell assay; format: functional, cell-based
[8] = test system: CT26; assay: Induction of apoptosis in mouse CT26 cells assessed as necrotic cells at 10 uM after 24 hrs by annexin V-FITC/propidium iodide staining based flow cytometry (reference value: 4.36%); format: functional
[9] = test system: CT26; assay: Antitumor activity against mouse CT26 cells implanted in Balb/c mouse assessed as solid tumor growth inhibition at 5 mg/kg, iv for 14 consecutive days measured on day 15 relative to control; format: functional; conditions: 360 h, read-out: TGI
[10] = test system: CT26; assay: Growth inhibition of mouse CT26 cells after 24 hrs by MTT assay; format: functional, cell-based
[11] = test system: HCT-116; assay: Growth inhibition of human HCT116 cells after 24 hrs by MTT assay; format: functional, cell-based
[12] = test system: CT26; assay: Induction of apoptosis in mouse CT26 cells assessed as early apoptotic cells at 10 uM after 24 hrs by annexin V-FITC/propidium iodide staining based flow cytometry (reference value: 3.91%); format: functional
[13] = test system: HCT-116; assay: Downregulation of beta-catenin protein expression in human HCT116 cells at 10 uM after 24 hrs by Western blot method; format: functional, cell-based
[14] = test system: CT26; assay: Induction of apoptosis in mouse CT26 cells assessed as live cells at 10 uM after 24 hrs by annexin V-FITC/propidium iodide staining based flow cytometry (reference value: 89.47%); format: functional
[15] = test system: Mus musculus; assay: Toxicity in Balb/c mouse implanted with mouse CT26 cells assessed as changes in body weight at 5 mg/kg, iv for 14 consecutive days starting from day 8 post tumor implantation; format: organism-based; conditions: in vivo
[16] = test system: HCT-116; assay: Induction of apoptosis in human HCT116 cells assessed as necrotic cells at 10 uM after 24 hrs by annexin V-FITC/propidium iodide staining based flow cytometry (reference value: 3.9%); format: functional
[17] = test system: CT26; assay: Antimetastatic activity against mouse CT26 cells implanted in Balb/c mouse assessed as inhibition of pulmonary metastasis nodules at 5 mg/kg, iv for 7 consecutive days starting from day 8 post tumor implantation measured on day 15 post tumor implantation relative to control; format: functional
[18] = test system: CT26; assay: Induction of apoptosis in mouse CT26 cells assessed as late apoptotic cells at 10 uM after 24 hrs by annexin V-FITC/propidium iodide staining based flow cytometry (reference value: 2.26%); format: functional
[19] = test system: Mus musculus; assay: Toxicity in Balb/c mouse implanted with mouse CT26 cells assessed as changes in body weight at 5 mg/kg, iv for 7 consecutive days starting from day 8 post tumor implantation; format: organism-based; conditions: in vivo
[20] = test system: HCT-116; assay: Induction of apoptosis in human HCT116 cells assessed as early apoptotic cells at 10 uM after 24 hrs by annexin V-FITC/propidium iodide staining based flow cytometry (reference value: 4.1%); format: functional
[21] = test system: HCT-116; assay: Induction of apoptosis in human HCT116 cells assessed as late apoptotic cells at 10 uM after 24 hrs by annexin V-FITC/propidium iodide staining based flow cytometry (reference value: 2.03%); format: functional
[22] = test system: HCT-116; assay: Induction of apoptosis in human HCT116 cells assessed as live cells at 10 uM after 24 hrs by annexin V-FITC/propidium iodide staining based flow cytometry (reference value: 89.97%); format: functional

Question: Which IC50 [1] does the source give for `NCCCNCCCCNCCCN1C(=O)c2cccc3cccc1c23` here?
Answer: Its IC50 is 11.1 µM.

Question: And the IC50 [2]?
Answer: The IC50 was 28.7 µM.

Question: And the IC50 [3]?
Answer: Its IC50 is 26.1 µM.

Question: What about the IC50 [4] of the same molecule?
Answer: The IC50 was 25.4 µM.

Question: `CCCCN1C(=O)c2cccc3c(NC(=O)CNCCCNCCCN)ccc1c23` was tested. Which IC50 [1] did it give?
Answer: Its IC50 is > 50 µM.

Question: What about the IC50 [2] of the same molecule?
Answer: The IC50 was > 50 µM.

Question: What about the IC50 [3] of the same molecule?
Answer: The IC50 was > 50 µM.

Question: What about the IC50 [4] of the same molecule?
Answer: The IC50 was > 50 µM.

Question: Which IC50 [1] does the source give for `CCCCN1C(=O)c2cccc3c(CNCCCCN)ccc1c23` here?
Answer: The IC50 was 16.9 µM.

Question: What about the IC50 [2] of the same molecule?
Answer: The IC50 was > 50 µM.

Question: What about the IC50 [3] of the same molecule?
Answer: The IC50 was 25.4 µM.

Question: What about the IC50 [4] of the same molecule?
Answer: The IC50 was 10.1 µM.

Question: How did the Activity [5] turn out when `CN(C)CCN1C(=O)c2cccc3cc(N)cc(c23)C1=O` [AMONAFIDE] was run?
Answer: Its Activity is “Active”.

Question: And the Activity [6]?
Answer: The Activity was “Active”.

Question: And the IC50 [1]?
Answer: The IC50 was 7.18 µM.

Question: What about the Activity [7] of the same molecule?
Answer: Its Activity is “Active”.

Question: What about the Activity [8] of the same molecule?
Answer: Its Activity is 3.92%.

Question: What about the inhibition in vivo at 5 mg/kg [9] of the same molecule?
Answer: The inhibition in vivo at 5 mg/kg was 20%.

Question: And the “growth inhibition (GI)” value [10]?
Answer: Its value is “Dose-dependent effect”.

Question: And the IC50 ([10]; CT26, 24 h)?
Answer: The IC50 was 11.7 µM.

Question: What about the “growth inhibition (GI)” value [11] of the same molecule?
Answer: The value was “Dose-dependent effect”.

Question: What about the IC50 ([11]; HCT-116, 24 h) of the same molecule?
Answer: The IC50 was 8.55 µM.

Question: What about the Activity [12] of the same molecule?
Answer: Its Activity is 27.2%.

Question: And the Activity [13]?
Answer: The Activity was “Active”.

Question: What about the Activity [14] of the same molecule?
Answer: Its Activity is 48.49%.

Question: And the Activity [15]?
Answer: The Activity was “Non-Toxic”.

Question: What about the Activity [16] of the same molecule?
Answer: Its Activity is 7.6%.

Question: And the IC50 [2]?
Answer: The IC50 was 20.1 µM.

Question: What about the inhibition in vivo at 5 mg/kg [17] of the same molecule?
Answer: Its inhibition in vivo at 5 mg/kg is 66%.

Question: And the IC50 [3]?
Answer: The IC50 was 10.3 µM.

Question: What about the Activity [18] of the same molecule?
Answer: Its Activity is 20.3%.

Question: What about the IC50 [4] of the same molecule?
Answer: The IC50 was 11.7 µM.

Question: What about the Activity [19] of the same molecule?
Answer: The Activity was “Non-Toxic”.

Question: And the Activity [20]?
Answer: Its Activity is 14.9%.

Question: What about the Activity [21] of the same molecule?
Answer: Its Activity is 36.9%.

Question: What about the Activity [22] of the same molecule?
Answer: Its Activity is 40.53%.

Question: Which results are given for `CCCCN1C(=O)c2cccc3c(CNCCCNCCCN)ccc1c23`?
Answer: IC50 [1]: 28.3 µM; IC50 [2]: 23.5 µM; IC50 [3]: 5.59 µM; IC50 [4]: 3.27 µM

Question: `CCCCN1C(=O)c2cccc3c(NC(=O)CNCCCCN)ccc1c23` was tested. Which IC50 [1] did it give?
Answer: The IC50 was > 50 µM.

Question: And the IC50 [2]?
Answer: Its IC50 is > 50 µM.

Question: And the IC50 [3]?
Answer: Its IC50 is > 50 µM.

Question: What about the IC50 [4] of the same molecule?
Answer: Its IC50 is > 50 µM.

Question: Which IC50 [1] does the source give for `CCCCN1C(=O)c2cccc3c(NC(=O)CNCCCNCCCNCCCN)ccc1c23` here?
Answer: The IC50 was > 50 µM.

Question: And the IC50 [2]?
Answer: Its IC50 is > 50 µM.

Question: And the IC50 [3]?
Answer: Its IC50 is > 50 µM.

Question: What about the IC50 [4] of the same molecule?
Answer: The IC50 was > 50 µM.

Question: For `CCCCN1C(=O)c2cccc3c(NC(=O)CNCCCCNCCCCNCCCCN)ccc1c23`, which IC50 [1] is on record?
Answer: The IC50 was > 50 µM.

Question: And the IC50 [2]?
Answer: Its IC50 is > 50 µM.

Question: And the IC50 [3]?
Answer: The IC50 was 18 µM.

Question: What about the IC50 [4] of the same molecule?
Answer: Its IC50 is 16.1 µM.

Question: `NCCCNCCCN1C(=O)c2cccc3cccc1c23` was tested. Which IC50 [1] did it give?
Answer: Its IC50 is 16.9 µM.

Question: What about the IC50 [2] of the same molecule?
Answer: The IC50 was 11.5 µM.

Question: And the IC50 [3]?
Answer: The IC50 was 19.4 µM.

Question: What about the IC50 [4] of the same molecule?
Answer: Its IC50 is > 50 µM.

Question: For `NCCCNCCCNCCCN1C(=O)c2cccc3cccc1c23`, which IC50 [1] is on record?
Answer: The IC50 was 12 µM.

Question: And the IC50 [2]?
Answer: The IC50 was 26.1 µM.

Question: And the IC50 [3]?
Answer: Its IC50 is 19.4 µM.

Question: What about the IC50 [4] of the same molecule?
Answer: Its IC50 is 14.6 µM.

Question: Which IC50 [1] does the source give for `CCCCN1C(=O)c2cccc3c(NC(=O)CNCCCCNCCCCN)ccc1c23` here?
Answer: Its IC50 is > 50 µM.

Question: And the IC50 [2]?
Answer: The IC50 was > 50 µM.

Question: What about the IC50 [3] of the same molecule?
Answer: The IC50 was 23.3 µM.

Question: What about the IC50 [4] of the same molecule?
Answer: Its IC50 is 21.9 µM.

Question: How did the IC50 [1] turn out when `NCCCCNCCCCN1C(=O)c2cccc3cccc1c23` was run?
Answer: Its IC50 is > 50 µM.

Question: What about the IC50 [2] of the same molecule?
Answer: The IC50 was > 50 µM.

Question: And the IC50 [3]?
Answer: Its IC50 is 43.9 µM.

Question: And the IC50 [4]?
Answer: Its IC50 is > 50 µM.

From ChEMBL document CHEMBL4130638, “Discovery of the Polyamine Conjugate with Benzo[ cd]indol-2(1 H)-one as a Lysosome-Targeted Antimetastatic Agent” (J Med Chem, 2018)
